According to patent US20200368312A1 (priority 2017, published 2020):
Where two headings read alike, the source gives them in different places.

Key:
Format in all cases: cell-based
S. haemolyticus (CoNS) = experiment: Broth microdilution MIC, S. haemolyticus (CoNS) (Table 7); conditions: S. haemolyticus (CoNS) MMX 529 ATCC 29970
Clostridium difficile = experiment: Broth microdilution MIC, C. difficile, anaerobic, supplemented Brucella Broth (Example 11, Table 7); conditions: C. difficile MMX 4381 ATCC 700057, toxinAB-negative
Staphylococcus aureus = experiment: microbe, parasite or virus in culture; conditions: for MIC: Staphylococcus aureus, read-out: MIC
S. epidermidis (CoNS) = experiment: Broth microdilution MIC, S. epidermidis (CoNS) (Table 7)
Enterococci = test system: Enterococci
S. lugdenensis (CoNS) = experiment: Broth microdilution MIC, S. lugdenensis (CoNS) (Table 7); conditions: S. lugdenensis (CoNS) MMX 8724
S. hominis (CoNS) = experiment: Broth microdilution MIC, S. hominis (CoNS) (Table 7); conditions: S. hominis (CoNS) MMX 667 ATCC 27844
Streptococci = experiment: Broth microdilution MIC, Streptococci (Example 11, Table 7)
C. perfringens = test system: C. perfringens
P. anaerobius = experiment: Broth microdilution MIC, P. anaerobius (Table 7); conditions: P. anaerobius MMX 1208 ATCC 27337
P. micros = experiment: Broth microdilution MIC, P. micros (Table 7); conditions: P. micros MMX 3546
P. acnes = experiment: Broth microdilution MIC, P. acnes (Table 7)
[1] = ATCC 29213 / MSSA, S. aureus MMX 100 ATCC 29213, MSSA (quality control)
[2] = ATCC 33591 / MRSA, S. aureus MMX 5717 ATCC 33591, MRSA
[3] = ATCC BAA-1556 / MRSA, S. aureus MMX 4675 ATCC BAA-1556, MRSA
[4] = ATCC BAA-1756 / MRSA, S. aureus MMX 2011 ATCC BAA-1756, MRSA
[5] = VISA, S. aureus MMX 1723, Mu50, VISA
[6] = VISA, S. aureus MMX 2124, VISA, DaptoNS
[7] = S. epidermidis (CoNS) MMX 762, MRSE
[8] = S. epidermidis (CoNS) MMX 5145, MRSE
[9] = E. faecalis MMX 101 ATCC 29212, VSE
[10] = S. anginosus (AGS) MMX 1201 ATCC 33397
[11] = S. pneumoniae MMX 1195 ATCC 49619, PISP

CC(=O)NC[C@H]1CN(c2ccc(N3CCOCC3)c(F)c2)C(=O)O1 [Linezolid]
1 µg/mL: MIC (Clostridium difficile) | MIC (Staphylococcus aureus; [2]) | MIC (S. hominis (CoNS)) | MIC (Streptococci; S. agalactiae MMX 4088) | MIC (Streptococci; S. agalactiae MMX 4115, erm^R) | MIC (Streptococci; S. dysgalactiae MMX 5121) | MIC (Streptococci; S. dysgalactiae MMX 5123) | MIC (Streptococci; S. dysgalactiae MMX 5124) | MIC (Streptococci; S. oralis (MGS) MMX 5821) | MIC (Streptococci; S. pneumoniae MMX 432, PRSP) | MIC (Streptococci; S. pneumoniae MMX 747) | MIC (Streptococci; [11]) | MIC (Streptococci; S. pyogenes MMX 946, ermR) | MIC (Streptococci; S. pyogenes MMX 8778)
3 µg/mL: MIC (Staphylococcus aureus; MRSA, S. aureus MMX 2010, MRSA) | MIC (Staphylococcus aureus; MRSA, S. aureus MMX 3982, MRSA) | MIC (Staphylococcus aureus; MSSA, S. aureus MMX 7907, MSSA)
1.5 µg/mL: MIC (Staphylococcus aureus; [3]) | MIC (Staphylococcus aureus; MRSA, S. aureus MMX 5999, MRSA) | MIC (Staphylococcus aureus; MRSA, S. aureus MMX 7899, MRSA) | MIC (Staphylococcus aureus; MRSA, S. aureus MMX 7903, MRSA) | MIC (Staphylococcus aureus; MSSA, S. aureus MMX 2490, MSSA) | MIC (Staphylococcus aureus; S. aureus MMX 4665, hVISA) | MIC (Staphylococcus aureus; S. aureus MMX 5989, Mu3, hVISA) | MIC (Staphylococcus aureus; [6]) | MIC (Staphylococcus aureus; VISA, S. aureus MMX 4658, VISA)
214 ×: RV40 activity as compared to Comparator (Staphylococcus aureus; MRSA strains (Table 5), […])
2.5 µg/mL: MIC (Staphylococcus aureus; MRSA, S. aureus MMX 5985, MRSA) | MIC (Staphylococcus aureus; VISA, S. aureus MMX 4660, VISA)
1.25 µg/mL: MIC (Staphylococcus aureus; [5])
4 µg/mL: MIC (Staphylococcus aureus; [1]) | MIC (Enterococci; E. faecalis MMX 4176) | MIC (Enterococci; E. faecium MMX 173, VanB VRE)
0.5 µg/mL: MIC (S. haemolyticus (CoNS)) | MIC (S. epidermidis (CoNS); [8]) | MIC (S. lugdenensis (CoNS)) | MIC (Streptococci; [10]) | MIC (Streptococci; S. constellatus (AGS) MMX 5677) | MIC (Streptococci; S. mitis (MGS) MMX 5798)
2 µg/mL: MIC (Staphylococcus aureus; [4]) | MIC (Staphylococcus aureus; MRSA, S. aureus MMX 7900, MRSA) | MIC (Staphylococcus aureus; MRSA, S. aureus MMX 7901, MRSA) | MIC (Staphylococcus aureus; MRSA, S. aureus MMX 7902, MRSA) | MIC (Staphylococcus aureus; MSSA, S. aureus MMX 7908, MSSA) | MIC (S. epidermidis (CoNS); [7]) | MIC (Enterococci; [9]) | MIC (Enterococci; E. faecalis MMX 1086, VanA VRE) | MIC (Enterococci; E. faecium MMX 851, VanA VRE) | MIC (Enterococci; E. faecium MMX 4204) | MIC (Streptococci; S. pyogenes MMX 404 ATCC 19615)

CN[C@H](CC(C)C)C(=O)N[C@H]1C(=O)N[C@@H](CC(N)=O)C(=O)N[C@H]2C(=O)N[C@H]3C(=O)N[C@H](C(=O)N[C@H](C(=O)O)c4cc(O)cc(O)c4-c4cc3ccc4O)[C@H](O[C@H]3C[C@](C)(N)[C@@H](O)[C@H](C)O3)c3ccc(c(Cl)c3)Oc3cc2cc(c3O[C@@H]2O[C@H](CO)[C@@H](O)[C@H](O)[C@H]2O[C@H]2C[C@](C)(NCc3ccc(-c4ccc(Cl)cc4)cc3)[C@@H](O)[C@H](C)O2)Oc2ccc(cc2Cl)[C@H]1O [Oritavancin]
0.025 µg/mL: MIC (Staphylococcus aureus; MSSA, S. aureus MMX 2490, MSSA)
0.015 µg/mL: MIC (C. perfringens) | MIC (Enterococci; E. faecium MMX 4204)
≤ 0.008 µg/mL: MIC (Enterococci; [9]) | MIC (Enterococci; E. faecium MMX 173, VanB VRE) | MIC (S. lugdenensis (CoNS)) | MIC (Streptococci; S. constellatus (AGS) MMX 5677) | MIC (Streptococci; S. oralis (MGS) MMX 5821) | MIC (Streptococci; S. pneumoniae MMX 432, PRSP) | MIC (Streptococci; S. pneumoniae MMX 747) | MIC (Streptococci; [11]) | MIC (P. acnes; P. acnes MMX 7942 ATCC 6919) | MIC (P. acnes; P. acnes MMX 7946 ATCC 11827)
1 µg/mL: MIC (Staphylococcus aureus; [5]) | MIC (Staphylococcus aureus; [6]) | MIC (Staphylococcus aureus; VISA, S. aureus MMX 4660, VISA) | MIC (Enterococci; E. faecalis MMX 1086, VanA VRE) | MIC (Streptococci; S. agalactiae MMX 427 ATCC 13813) | MIC (Streptococci; S. dysgalactiae MMX 5124) | MIC (Streptococci; S. pyogenes MMX 8778)
2 µg/mL: MIC (Streptococci; S. dysgalactiae MMX 5123) | MIC (Streptococci; S. pyogenes MMX 404 ATCC 19615)
0.05 µg/mL: MIC (Streptococci; S. dysgalactiae MMX 5121)
0.25 µg/mL: MIC (Staphylococcus aureus; VISA, S. aureus MMX 4658, VISA) | MIC (S. epidermidis (CoNS); [7]) | MIC (Streptococci; S. agalactiae MMX 4115, erm^R) | MIC (Streptococci; S. mitis (MGS) MMX 5798) | MIC (Streptococci; S. pyogenes MMX 946, ermR)
0.5 µg/mL: MIC (Staphylococcus aureus; MRSA, S. aureus MMX 7901, MRSA) | MIC (Staphylococcus aureus; MRSA, S. aureus MMX 7902, MRSA) | MIC (Staphylococcus aureus; S. aureus MMX 4665, hVISA) | MIC (Streptococci; [10])
0.12 µg/mL: MIC (S. haemolyticus (CoNS)) | MIC (Staphylococcus aureus; [2]) | MIC (Staphylococcus aureus; MRSA, S. aureus MMX 3982, MRSA) | MIC (Staphylococcus aureus; MRSA, S. aureus MMX 5999, MRSA) | MIC (Staphylococcus aureus; MRSA, S. aureus MMX 7899, MRSA) | MIC (Staphylococcus aureus; MRSA, S. aureus MMX 7900, MRSA) | MIC (Staphylococcus aureus; S. aureus MMX 5989, Mu3, hVISA) | MIC (S. epidermidis (CoNS); [8]) | MIC (Enterococci; E. faecium MMX 851, VanA VRE) | MIC (Streptococci; S. agalactiae MMX 4088)
0.03 µg/mL: MIC (P. anaerobius) | MIC (P. micros) | MIC (Staphylococcus aureus; [1]) | MIC (Staphylococcus aureus; [4]) | MIC (Staphylococcus aureus; MRSA, S. aureus MMX 5985, MRSA) | MIC (Enterococci; E. faecalis MMX 4176) | MIC (Streptococci; S. mitis (MGS) MMX 1205 ATCC 49456)
17 ×: RV40 activity as compared to Comparator (Staphylococcus aureus)
0.06 µg/mL: MIC (Staphylococcus aureus; [3]) | MIC (Staphylococcus aureus; MRSA, S. aureus MMX 2010, MRSA) | MIC (Staphylococcus aureus; MRSA, S. aureus MMX 7903, MRSA) | MIC (Staphylococcus aureus; MSSA, S. aureus MMX 7907, MSSA) | MIC (Staphylococcus aureus; MSSA, S. aureus MMX 7908, MSSA) | MIC (S. hominis (CoNS))
